Measurements taken from patent US7053052B2, “Therapies involving mutated heat shock transcription factor” (priority 1997, dated 2006).

System: HepG2 cells
Assay: Mortality from exposure to cyclophosphamide (LDH release, mortality)
Conditions: 20 mM, 24 hour exposure

O=P1(N(CCCl)CCCl)NCCCO1 (stereo not shown) [cyclophosphamide, reference compound]
mortality caused by cyclophosphamide: 38%
